Where two headings read alike, the source gives them in different places.
1-(4-C10-14 -alkylphenyl)-1,2-nonanedione dioximes [Dioximes D]
log D (logarithm of nickel value extraction distribution coefficient) (pH 1.6): 0.14
log D (logarithm of nickel value extraction distribution coefficient) (pH 2.08): 0.87

1-(4-C10-14 -alkylphenyl)-1,2-propanedione dioximes [Dioximes C1]
log D (logarithm of nickel value extraction distribution coefficient) (pH 1.42): -0.30
log D (logarithm of nickel value extraction distribution coefficient) (pH 1.66): 0.10
log D (logarithm of nickel value extraction distribution coefficient) (pH 2): 0.80
log D (logarithm of nickel value extraction distribution coefficient) (pH 2.55): 1.76

2-(4-C10-14 -alkylphenyl)-2-hydroxyiminoethanal oximes [Dioximes B]
log D (logarithm of nickel value extraction distribution coefficient) (pH 1.36): -0.38
log D (logarithm of nickel value extraction distribution coefficient) (pH 1.7): 0.12
log D (logarithm of nickel value extraction distribution coefficient) (pH 2.1): 0.82
log D (logarithm of nickel value extraction distribution coefficient) (pH 2.66): 1.84

CCCCCCCC(=NO)C(CCCCCCC)=NO [Dioxime A, 8,9-hexadecanedione dioxime, reference compound]
log D (logarithm of nickel value extraction distribution coefficient) (pH 1.58): -0.70
log D (logarithm of nickel value extraction distribution coefficient) (pH 1.89): -0.22
log D (logarithm of nickel value extraction distribution coefficient) (pH 2.04): 0.18
log D (logarithm of nickel value extraction distribution coefficient) (pH 2.7): 1.19
